Test results from patent US20230111310A1, “CARBOXYLIC ACID DERIVATIVE-SUBSTITUTED IMINO ARYL COMPOUND, PREPARATION METHOD THEREFOR, HERBICIDAL COMPOSITION AND USE THEREOF” (Qingdao Kingagroot Chemical Compound Co., Ltd., priority 2020, published 2023).

Each compound was assayed on Echinochloa crusgalli (assay: Weeding effect in post-emergence stage). Conditions: Dose 15 g/ha; fresh weight control rate level.
Format: in vivo
Summary of the method: (§1)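 Weeds were treated post-emergence at 2-3 leaves with compound doses from 7.5 up to 500 g/ha, formulated in acetone–Tween 80 with methyl oleate synergist. Efficacy was assessed as growth control after 3 weeks.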

SMILES | Weeding effect in post-emergence stage, Echinochloa crusgalli (level)
COC(=O)C(C)O/N=C/c1cc(-n2c(=O)c(Cl)c(C(F)(F)F)n(C)c2=O)c(F)cc1Cl (stereo not drawn) [Compound 431] | 5 (Level 5: growth control rate is above 85%)
COC(=O)C(C)O/N=C/c1cc(N2C(=O)CC(N)(C(F)(F)F)N(C)C2=O)c(F)cc1Cl (stereo not drawn) [Compound 432] | 5 (Level 5: growth control rate is above 85%)
C#CCCOC(=O)C(C)O/N=C/c1cc(-n2c(=O)cc(C(F)(F)F)n(C)c2=O)c(F)cc1Cl (stereo not drawn) [Compound 442] | 5 (Level 5: growth control rate is above 85%)
CC(C#N)OC(=O)C(C)O/N=C/c1cc(-n2c(=O)cc(C(F)(F)F)n(C)c2=O)c(F)cc1Cl (stereo not drawn) [Compound 443] | 5 (Level 5: growth control rate is above 85%)
CC(CC#N)OC(=O)C(C)O/N=C/c1cc(-n2c(=O)cc(C(F)(F)F)n(C)c2=O)c(F)cc1Cl (stereo not drawn) [Compound 444] | 5 (Level 5: growth control rate is above 85%)
CC(C#N)COC(=O)C(C)O/N=C/c1cc(-n2c(=O)cc(C(F)(F)F)n(C)c2=O)c(F)cc1Cl (stereo not drawn) [Compound 445] | 5 (Level 5: growth control rate is above 85%)
CC(O/N=C/c1cc(-n2c(=O)cc(C(F)(F)F)n(C)c2=O)c(F)cc1Cl)C(=O)OCCCC#N (stereo not drawn) [Compound 446] | 5 (Level 5: growth control rate is above 85%)

Each compound was assayed on Digitaria sanguinalis (assay: Weeding effect in post-emergence stage). Conditions: Dose 15 g/ha; fresh weight control rate level.
Format: in vivo
Summary of the method: as §1

SMILES | Weeding effect in post-emergence stage, Digitaria sanguinalis (level)
COC(=O)C(C)O/N=C/c1cc(-n2c(=O)c(Cl)c(C(F)(F)F)n(C)c2=O)c(F)cc1Cl (stereo not drawn) [Compound 431] | 5 (Level 5: growth control rate is above 85%)
COC(=O)C(C)O/N=C/c1cc(N2C(=O)CC(N)(C(F)(F)F)N(C)C2=O)c(F)cc1Cl (stereo not drawn) [Compound 432] | 5 (Level 5: growth control rate is above 85%)
C#CCCOC(=O)C(C)O/N=C/c1cc(-n2c(=O)cc(C(F)(F)F)n(C)c2=O)c(F)cc1Cl (stereo not drawn) [Compound 442] | 5 (Level 5: growth control rate is above 85%)
CC(C#N)OC(=O)C(C)O/N=C/c1cc(-n2c(=O)cc(C(F)(F)F)n(C)c2=O)c(F)cc1Cl (stereo not drawn) [Compound 443] | 5 (Level 5: growth control rate is above 85%)
CC(CC#N)OC(=O)C(C)O/N=C/c1cc(-n2c(=O)cc(C(F)(F)F)n(C)c2=O)c(F)cc1Cl (stereo not drawn) [Compound 444] | 5 (Level 5: growth control rate is above 85%)
CC(C#N)COC(=O)C(C)O/N=C/c1cc(-n2c(=O)cc(C(F)(F)F)n(C)c2=O)c(F)cc1Cl (stereo not drawn) [Compound 445] | 5 (Level 5: growth control rate is above 85%)
CC(O/N=C/c1cc(-n2c(=O)cc(C(F)(F)F)n(C)c2=O)c(F)cc1Cl)C(=O)OCCCC#N (stereo not drawn) [Compound 446] | 5 (Level 5: growth control rate is above 85%)

What follows are compounds tested on Setaria viridis (assay: Weeding effect in post-emergence stage). Conditions: Dose 15 g/ha; fresh weight control rate level.
Format: in vivo
Summary of the method: as §1

SMILES | Weeding effect in post-emergence stage, Setaria viridis (level)
COC(=O)C(C)O/N=C/c1cc(-n2c(=O)c(Cl)c(C(F)(F)F)n(C)c2=O)c(F)cc1Cl (stereo not drawn) [Compound 431] | 5 (Level 5: growth control rate is above 85%)
COC(=O)C(C)O/N=C/c1cc(N2C(=O)CC(N)(C(F)(F)F)N(C)C2=O)c(F)cc1Cl (stereo not drawn) [Compound 432] | 5 (Level 5: growth control rate is above 85%)
C#CCCOC(=O)C(C)O/N=C/c1cc(-n2c(=O)cc(C(F)(F)F)n(C)c2=O)c(F)cc1Cl (stereo not drawn) [Compound 442] | 5 (Level 5: growth control rate is above 85%)
CC(C#N)OC(=O)C(C)O/N=C/c1cc(-n2c(=O)cc(C(F)(F)F)n(C)c2=O)c(F)cc1Cl (stereo not drawn) [Compound 443] | 5 (Level 5: growth control rate is above 85%)
CC(CC#N)OC(=O)C(C)O/N=C/c1cc(-n2c(=O)cc(C(F)(F)F)n(C)c2=O)c(F)cc1Cl (stereo not drawn) [Compound 444] | 5 (Level 5: growth control rate is above 85%)
CC(C#N)COC(=O)C(C)O/N=C/c1cc(-n2c(=O)cc(C(F)(F)F)n(C)c2=O)c(F)cc1Cl (stereo not drawn) [Compound 445] | 5 (Level 5: growth control rate is above 85%)
CC(O/N=C/c1cc(-n2c(=O)cc(C(F)(F)F)n(C)c2=O)c(F)cc1Cl)C(=O)OCCCC#N (stereo not drawn) [Compound 446] | 5 (Level 5: growth control rate is above 85%)

Each compound was assayed on Abutilon theophrasti (assay: Weeding effect in post-emergence stage). Conditions: Dose 15 g/ha; fresh weight control rate level.
Format: in vivo
Summary of the method: as §1

SMILES | Weeding effect in post-emergence stage, Abutilon theophrasti (level)
COC(=O)C(C)O/N=C/c1cc(-n2c(=O)c(Cl)c(C(F)(F)F)n(C)c2=O)c(F)cc1Cl (stereo not drawn) [Compound 431] | 5 (Level 5: growth control rate is above 85%)
COC(=O)C(C)O/N=C/c1cc(N2C(=O)CC(N)(C(F)(F)F)N(C)C2=O)c(F)cc1Cl (stereo not drawn) [Compound 432] | 5 (Level 5: growth control rate is above 85%)
C#CCCOC(=O)C(C)O/N=C/c1cc(-n2c(=O)cc(C(F)(F)F)n(C)c2=O)c(F)cc1Cl (stereo not drawn) [Compound 442] | 5 (Level 5: growth control rate is above 85%)
CC(C#N)OC(=O)C(C)O/N=C/c1cc(-n2c(=O)cc(C(F)(F)F)n(C)c2=O)c(F)cc1Cl (stereo not drawn) [Compound 443] | 5 (Level 5: growth control rate is above 85%)
CC(CC#N)OC(=O)C(C)O/N=C/c1cc(-n2c(=O)cc(C(F)(F)F)n(C)c2=O)c(F)cc1Cl (stereo not drawn) [Compound 444] | 5 (Level 5: growth control rate is above 85%)
CC(C#N)COC(=O)C(C)O/N=C/c1cc(-n2c(=O)cc(C(F)(F)F)n(C)c2=O)c(F)cc1Cl (stereo not drawn) [Compound 445] | 5 (Level 5: growth control rate is above 85%)
CC(O/N=C/c1cc(-n2c(=O)cc(C(F)(F)F)n(C)c2=O)c(F)cc1Cl)C(=O)OCCCC#N (stereo not drawn) [Compound 446] | 5 (Level 5: growth control rate is above 85%)

Each compound was assayed on Eleusine indica (assay: Weeding effect in post-emergence stage). Conditions: Dose 15 g/ha; fresh weight control rate level.
Format: in vivo
Summary of the method: as §1

SMILES | Weeding effect in post-emergence stage, Eleusine indica (level)
COC(=O)C(C)O/N=C/c1cc(-n2c(=O)c(Cl)c(C(F)(F)F)n(C)c2=O)c(F)cc1Cl (stereo not drawn) [Compound 431] | 5 (Level 5: growth control rate is above 85%)
COC(=O)C(C)O/N=C/c1cc(N2C(=O)CC(N)(C(F)(F)F)N(C)C2=O)c(F)cc1Cl (stereo not drawn) [Compound 432] | 5 (Level 5: growth control rate is above 85%)
C#CCCOC(=O)C(C)O/N=C/c1cc(-n2c(=O)cc(C(F)(F)F)n(C)c2=O)c(F)cc1Cl (stereo not drawn) [Compound 442] | 5 (Level 5: growth control rate is above 85%)
CC(C#N)OC(=O)C(C)O/N=C/c1cc(-n2c(=O)cc(C(F)(F)F)n(C)c2=O)c(F)cc1Cl (stereo not drawn) [Compound 443] | 5 (Level 5: growth control rate is above 85%)
CC(CC#N)OC(=O)C(C)O/N=C/c1cc(-n2c(=O)cc(C(F)(F)F)n(C)c2=O)c(F)cc1Cl (stereo not drawn) [Compound 444] | 5 (Level 5: growth control rate is above 85%)
CC(C#N)COC(=O)C(C)O/N=C/c1cc(-n2c(=O)cc(C(F)(F)F)n(C)c2=O)c(F)cc1Cl (stereo not drawn) [Compound 445] | 5 (Level 5: growth control rate is above 85%)
CC(O/N=C/c1cc(-n2c(=O)cc(C(F)(F)F)n(C)c2=O)c(F)cc1Cl)C(=O)OCCCC#N (stereo not drawn) [Compound 446] | 5 (Level 5: growth control rate is above 85%)

Each compound was assayed on Alopecurus japonicus (assay: Weeding effect in post-emergence stage). Conditions: Dose 15 g/ha; fresh weight control rate level.
Format: in vivo
Summary of the method: as §1

SMILES | Weeding effect in post-emergence stage, Alopecurus japonicus (level)
COC(=O)C(C)O/N=C/c1cc(-n2c(=O)c(Cl)c(C(F)(F)F)n(C)c2=O)c(F)cc1Cl (stereo not drawn) [Compound 431] | 5 (Level 5: growth control rate is above 85%)
COC(=O)C(C)O/N=C/c1cc(N2C(=O)CC(N)(C(F)(F)F)N(C)C2=O)c(F)cc1Cl (stereo not drawn) [Compound 432] | 5 (Level 5: growth control rate is above 85%)
C#CCCOC(=O)C(C)O/N=C/c1cc(-n2c(=O)cc(C(F)(F)F)n(C)c2=O)c(F)cc1Cl (stereo not drawn) [Compound 442] | 5 (Level 5: growth control rate is above 85%)
CC(C#N)OC(=O)C(C)O/N=C/c1cc(-n2c(=O)cc(C(F)(F)F)n(C)c2=O)c(F)cc1Cl (stereo not drawn) [Compound 443] | 5 (Level 5: growth control rate is above 85%)
CC(CC#N)OC(=O)C(C)O/N=C/c1cc(-n2c(=O)cc(C(F)(F)F)n(C)c2=O)c(F)cc1Cl (stereo not drawn) [Compound 444] | 5 (Level 5: growth control rate is above 85%)
CC(C#N)COC(=O)C(C)O/N=C/c1cc(-n2c(=O)cc(C(F)(F)F)n(C)c2=O)c(F)cc1Cl (stereo not drawn) [Compound 445] | 5 (Level 5: growth control rate is above 85%)
CC(O/N=C/c1cc(-n2c(=O)cc(C(F)(F)F)n(C)c2=O)c(F)cc1Cl)C(=O)OCCCC#N (stereo not drawn) [Compound 446] | 5 (Level 5: growth control rate is above 85%)
